# Results taken from article PMC10375191, “Transformable Neuropeptide Prodrug with Tumor Microenvironment Responsiveness for Tumor Growth and Metastasis Inhibition of Triple‐Negative Breast Cancer” (Advanced Science, 2023).
# Starred links: 1 amine or outer side, 2 acyl side, 3 side chain; linkers in the order of their positions; H or OH if unused. Residues, ends and D or L forms follow the SMILES beside them. *: point of attachment. Doxorubicin(3'-N) = COc1cccc2c1C(=O)c1c(O)c3c(c(O)c1C2=O)C[C@@](O)(C(=O)CO)C[C@@H]3O[C@H]1C[C@H](N*)[C@H](O)[C@H](C)O1; Suc = O=C(CCC(=O)[*:2])[*:1]
# Assays:
# [1] = biological target: T1, matrix metalloproteinase‐2 (MMP‐2) (Homo sapiens, UniProt P08253); experiment: MMPs-responsive cleavage of DOX-P18 by MMP-2 (HPLC, MS, fluorescence); format: in vitro ADME; settings: 1 mg mL^−1 DOX-P18 with 1 µg mL^−1 MMP-2, 37 °C; HPLC at 6, 12, 24, 72 h, monitored at 500 nm; product DOX-P3 identified by MS
# T1 construct: purchased Novoprotein Scientific Inc. (Shanghai, China)
# T1 sequence (P08253 110-660): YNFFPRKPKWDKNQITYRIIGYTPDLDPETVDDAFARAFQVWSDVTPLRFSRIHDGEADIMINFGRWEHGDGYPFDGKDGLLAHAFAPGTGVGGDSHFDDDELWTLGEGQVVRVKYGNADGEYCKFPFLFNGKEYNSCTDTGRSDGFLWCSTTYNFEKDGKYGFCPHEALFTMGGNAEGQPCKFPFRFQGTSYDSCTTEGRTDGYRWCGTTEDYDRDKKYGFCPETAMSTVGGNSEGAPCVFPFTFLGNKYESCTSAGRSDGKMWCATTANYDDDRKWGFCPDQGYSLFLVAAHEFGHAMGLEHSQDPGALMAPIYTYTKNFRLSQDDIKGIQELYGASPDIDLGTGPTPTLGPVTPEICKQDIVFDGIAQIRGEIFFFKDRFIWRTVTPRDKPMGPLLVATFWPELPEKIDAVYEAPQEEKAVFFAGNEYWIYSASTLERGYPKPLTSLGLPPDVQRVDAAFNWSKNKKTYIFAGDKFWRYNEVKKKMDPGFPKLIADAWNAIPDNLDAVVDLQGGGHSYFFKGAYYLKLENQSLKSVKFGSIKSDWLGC
# Procedure: The enzymatic reaction process was monitored by HPLC at 6, 12, 24, and 72 h.
# Doxorubicin hydrochloride (DOX·HCl), trifluoroacetic acid (TFA), and anhydrous N,N-Dimethylformamide (DMF) were purchased from Aladdin (Shanghai, China).
# Thioanisole (TA), 1,2-ethanedithiol (EDT), and phenol were obtained from Macklin (Shanghai, China). 4-methylmorpholine (NMM), N,N’-diisopropylcarbodiimide (DIC), and 1-hydroxybenzotriazole (HOBt) were purchased from OKA (Beijing, China). Rink amide methylbenzhydrylamine (MBHA) resin, Wang resin and all Fmoc-protected amino acids were obtained from NJPeptide (Nanjing, China). Ethanol, diethyl ether, acetonitrile (ACN), and methanol were purchased from Sinopharm Chemical Reagent Co., Ltd (Shanghai, China). Piperidine, p-nitrophenol, and succinic anhydride (Succ) were obtained from Sigma-Aldrich (Shanghai, China). Recombinant human matrix metalloproteinase-2 (MMP-2) and matrix metalloproteinase-9 (MMP-9) produced by Novoprotein Scientific Inc. (Shanghai, China) are supplied as a 0.2 μm filtered buffer mixture of 20 mM Tris-HCl, 2 mM CaCl2, 150 mM NaCl, 0.05 % Brij 35 (w/v), pH 7.5, and their specific activity is >1300 pmol/min/µg as measured under the described conditions. All commercial reagents and HPLC solvents were used with […]
# MCF‐7 cells = experiment: CCK-8 cell viability assay, MCF-7; format: cell-based, human; settings: MCF-7, 24 h
# Procedure: (§1) MDA‐MB‐231 cells were incubated in 96‐well plates for 24 h (1 × 10^4 cells per well). […] At the appointed time, 10 µL CCK‐8 solution was dropped into each well and further co‐incubated with treated cells for 2 h. The absorbance values at 450 nm were measured by an automated plate reader (iMark (168‐1130), Biorad, USA). The IC50 values were obtained from Microsoft Excel's FORECAST formula.
# breast cancer cell line MCF-7 after 24 h incubation. Data are presented as means ±
# standard deviations (n = 3).
# (1 picture or pasted object on this page, not shown here)
# [2] = system: MDA‐MB‐231 tumor‐bearing BALB/c nude mice; experiment: Biodistribution by ex vivo fluorescence imaging; format: in vivo, mouse; settings: single i.v. injection, ex vivo fluorescence 2-12 h
# Procedure: At 2, 4, 6, 8, 10, and 12 h post‐injection, the major organs and tumor were taken out and fluorescence signals were captured by IVIS.
# MDA‐MB‐231 cells [3] = experiment: Flow cytometry: cellular uptake and cellular MMPs-responsive drug release; format: cell-based, human
# Procedure: MDA‐MB‐231 cells were plated in 6‐well plates (2 × 10^5 cells per well) for 24 h. […] The mean fluorescence intensity (MFI) of 1 × 10^4 cells was detected by flow cytometry (FACSCalibur, BD, USA). Besides, 5 mM ethylenediaminetetraacetic acid (EDTA) purchased from Sigma was used as a model inhibitor to inhibit MMPs activity.
# [4] = system: MDA‐MB‐231 xenograft model; experiment: In vivo antitumor evaluation, MDA-MB-231 xenograft; set-up: species or system mouse
# Text: All the animal experimental procedures were recognized and approved by the Regional Ethics Committee for Animal Experiments at Ningbo University, China (Permit NO. SYXK (Zhe) 2019‐0005). The triple‐negative breast cancer (TNBC) xenograft tumors were established on female BALB/c nude mice (≈15 g) by subcutaneous injection of MDA‐MB‐231 cells (5 × 10^6 cells in each mouse). TNBC metastasis models were constructed by injecting MDA‐MB‐231‐luc cells (1 × 10^5 cells in each mouse) through the tail vein to female BALB/c nude mice. The day that MDA‐MB‐231‐luc was injected was set as D0. In vivo imaging system (IVIS) (Lumina XRMS Ш, PerkinElmer, USA) was utilized to identify the tumor metastasis at D12.
# When the tumor volume of BALB/c mice reached ≈70 mm^3 (V = L × W × W/2), the tumor‐bearing mice were randomly divided into seven groups (n = 5 for each group). […] 100 µL drug was injected intravenously through the tail vein every other day for a total of five times. The day that the first injection was given was set as D0. Tumor size and mouse weight were measured every 2 days from the day that treatment started until D26.
# [5] = Pharmacokinetics in plasma; format: in vivo, mouse; settings: ICR female mice, 10 mg kg^−1 DOX content i.v.
# Procedure: The drug contents were quantified by HPLC (1260 Infinity II, Agilent, USA) as described in the methods of characterization in Supporting Information and the pharmacokinetic parameters were analyzed using the Phoenix WinNonlin 8.3.5 software.
# MDA‐MB‐231 cells [6] = experiment: CCK-8 cell viability assay, MDA-MB-231; format: cell-based, human; settings: MDA-MB-231, 36 and 48 h versus 24 h
# Procedure: as §1
# [7] = MDA-MB-231, 40 µg mL^−1, 1 h 37 °C, endocytosis inhibitors, flow cytometry MFI
smiles,measurement,setting,value
CC[C@H](C)[C@H](NC(=O)[C@@H]1CCCN1C(=O)[C@H](CC(N)=O)NC(=O)[C@H](CC(N)=O)NC(=O)[C@H](Cc1ccc(O)cc1)NC(=O)[C@H](Cc1c[nH]cn1)NC(=O)[C@H](CCCNC(=N)N)NC(=O)CNC(=O)[C@H](CCCNC(=N)N)NC(=O)[C@@H](NC(=O)CNC(=O)[C@H](CC(C)C)NC(=O)[C@@H]1CCCN1C(=O)CCC(=O)N[C@H]1C[C@H](O[C@H]2C[C@](O)(C(=O)CO)Cc3c(O)c4c(c(O)c32)C(=O)c2c(OC)cccc2C4=O)O[C@@H](C)[C@H]1O)C(C)C)C(=O)N[C@@H](Cc1c[nH]c2ccccc12)C(=O)N[C@@H](CCCNC(=N)N)C(=O)N[C@@H](CCC(N)=O)C(=O)N[C@@H](CCCNC(=N)N)C(=O)N[C@@H](Cc1ccc(O)cc1)C(N)=O [DOX‐P18] ({Doxorubicin(3'-N)-Suc}-PLGVRGRHYNNPIWRQRY-NH2),Enzymatic cleavage by MMP-2,[1],efficiently cleaved
same,"IC50 (cytotoxicity), in words",MCF‐7 cells,higher
same,Time of highest content in tissues,[2],6 h
same,Cellular uptake at 4 °C (MFI),"MDA‐MB‐231 cells [3]; MDA-MB-231, 40 µg mL^−1 (by DOX content), DMEM 10% FBS, 1 h, 4 °C, flow cytometry, n = 3",strongly suppressed
same,Share of uptake by Y1R-mediated endocytosis,"MDA‐MB‐231 cells [3]; MDA-MB-231, 40 µg mL^−1, 1 h 37 °C, Y1R antagonist BIBP3304 20 µM, flow cytometry MFI",20%
same,Share of uptake by caveolin-mediated endocytosis,MDA‐MB‐231 cells [3]; [7],14%
same,Share of uptake by micropinocytosis,MDA‐MB‐231 cells [3]; [7],27%
same,Cell fluorescence intensity relative to EDTA-treated group (cellular drug release),"MDA‐MB‐231 cells [3]; MDA-MB-231, 48 h, without vs with 5 mM EDTA (MMPs inhibited), flow cytometry, n = 3",almost three times higher
same,Death / body weight in tumor-bearing mice,"[4]; MDA-MB-231 tumor-bearing nude mice, DOX-P18 up to 100 mg kg^−1 (20 mg kg^−1 DOX), DOX at 10 and 20 mg kg^−1",no death or obvious weight losses
same,Tumor growth inhibition,"[4]; MDA-MB-231 xenograft, 100 mg kg^−1 (equivalent to 20 mg kg^−1 DOX) i.v. every other day, five times, n = 5",significant inhibitory efficacy
same,Histological analysis of major organs after treatment,"[4]; MDA-MB-231 xenograft, 24 days, five administrations, 5 mg kg^−1 DOX or DOX equivalent",without obvious lesions in other organs
same,Plasma clearance (CL) relative to DOX,[5],1/4
same,Total plasma concentration (AUC) relative to DOX,[5],four times higher
same,IC50 with extended incubation time,MDA‐MB‐231 cells [6],further reduced
